Literature values in patent US5008256A, “Salts of ranitidine and complexes of bismuth with carboxylic acids, and pharmaceutical compositions thereof” (Glaxo Group Limited, priority 1988, dated 1991).

Legend:
[1] = system: Campylobacter pylori; settings: background; in words
[2] = system: histamine H2 receptor; settings: background; in words

| SMILES | susceptibility of Campylobacter pylori [1] | histamine H2-antagonist activity [2] |
| --- | --- | --- |
| O=C([O-])CC(O)(CC(=O)[O-])C(=O)[O-].O=C([O-])CC(O)(CC(=O)[O-])C(=O)[O-].[Bi+3].[K+].[K+].[K+] [bismuth subcitrate, tripotassium dicitrato bismuthate] | susceptible |  |
| CNC(=C[N+](=O)[O-])NCCSCc1ccc(CN(C)C)o1 [Ranitidine, N-[2-[[[5-[(dimethylamino)-methyl]-2-furanyl]methyl]thio]ethyl]-N'-methyl-2-nitro-1,1-ethenediamine] |  | potent histamine H2 -antagonist |
